Assay results reported in the NIST ThermoML archive (doi:10.1021/acs.jced.6b00517).
Numbers after ± are expanded uncertainties.

What was measured:
[1] = Liquid; for mass density: 298.15 K, 101.3 kPa, Vibrating tube method; for vapor or sublimation pressure: Ebulliometric method (Recirculating still)
[2] = Boiling temperature at pressure P; conditions: 101.3 kPa; Liquid; Ebulliometric method (Recirculating still)
[3] = refractive index (Na D-line) (dimensionless); conditions: 298.15 K; 101.3 kPa; Liquid; Standard Abbe refractometry

CCCCOC(=O)OCCCC [dibutyl carbonate]
Conditions	Boiling temperature at pressure P [°C]	mass density [kg/m3]	refractive index
[1]	–	925.17 ± 5	–
[2]	204.50 ± 0.44	–	–
[3]	–	–	1.4115 ± 0.01

[1]
Conditions	vapor or sublimation pressure [kPa]
383.16 K	5 ± 2
403.77 K	10 ± 2
410.07 K	15 ± 2
420.73 K	20 ± 2
427.86 K	25 ± 2
434.15 K	30 ± 2
439.03 K	35 ± 2
443.67 K	40 ± 2
443.78 K	40 ± 2
449.33 K	45 ± 2
453.17 K	50 ± 2
456.63 K	55 ± 2
459.47 K	60 ± 2
461.31 K	65 ± 2
463.87 K	70 ± 2.1
464.01 K	70 ± 2.1
465.41 K	75 ± 2
468.56 K	80 ± 2
470.27 K	85 ± 2
472.83 K	90 ± 2
475.91 K	95 ± 2
478.02 K	100 ± 2.1
478.18 K	100 ± 2

CO [methanol]
Conditions	Boiling temperature at pressure P [°C]	mass density [kg/m3]	refractive index
[1]	–	786.61 ± 5	–
[2]	64.68 ± 0.44	–	–
[3]	–	–	1.3266 ± 0.01

[1]
Conditions	vapor or sublimation pressure [kPa]
315.78 K	40 ± 2
328.56 K	70 ± 2
337.33 K	100 ± 2

CCCCO [butan-1-ol]
Conditions	mass density [kg/m3]	refractive index
[1]	805.94 ± 5	–
[3]	–	1.3971 ± 0.01

[1]
Conditions	vapor or sublimation pressure [kPa]
367.03 K	40 ± 2
381.07 K	70 ± 2
